# PubChem BioAssay AID256 (DTP/NCI, 2004)
# Toxic doses and inconclusive results are not listed.
# Tested on: CD2F1 mice, L1210 leukemia ip, survival T/C
# Experiment: NCI In Vivo Anticancer Drug Screen. Data for tumor model L1210 Leukemia (intraperitoneal) in CD2F1 (CDF1) mice
# Conditions: higher = longer survival
# Outline: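 Mice carrying a transplanted tumor received test compound or vehicle alone. The value is the measurement in the treated group divided by that in the vehicle-treated control group.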
# [1] = endpoint: mean survival time, dose: 100.0 mg/kg/injection, schedule: Q01DX009 (ip), vehicle: saline with Tween-80
# [2] = endpoint: mean survival time, dose: 200.0 mg/kg/injection, schedule: Q01DX009 (ip), vehicle: saline with Tween-80
# [3] = endpoint: mean survival time, dose: 200.0 mg/kg/injection, schedule: Q04DX003 (ip), vehicle: saline with Tween-80
# [4] = endpoint: mean survival time, dose: 100.0 mg/kg/injection, schedule: Q04DX003 (ip), vehicle: saline with Tween-80
# [5] = endpoint: mean survival time, dose: 400.0 mg/kg/injection, schedule: Q04DX003 (ip), vehicle: saline with Tween-80
# [6] = endpoint: mean survival time, dose: 400.0 mg/kg/injection, schedule: Q01DX009 (ip), vehicle: saline with Tween-80
# [7] = endpoint: mean survival time, dose: 75.0 mg/kg/injection, schedule: Q01DX001 (ip), vehicle: saline
# [8] = endpoint: mean survival time, dose: 150.0 mg/kg/injection, schedule: Q01DX001 (ip), vehicle: saline
# [9] = endpoint: mean survival time, dose: 300.0 mg/kg/injection, schedule: Q01DX001 (ip), vehicle: saline
# [10] = endpoint: mean survival time, dose: 100.0 mg/kg/injection, schedule: Q04DX003 (ip), vehicle: Klucel (hydroxypropylcellulose) (HPC)
# [11] = endpoint: mean survival time, dose: 200.0 mg/kg/injection, schedule: Q04DX003 (ip), vehicle: Klucel (hydroxypropylcellulose) (HPC)
# [12] = endpoint: mean survival time, dose: 400.0 mg/kg/injection, schedule: Q04DX003 (ip), vehicle: Klucel (hydroxypropylcellulose) (HPC)
structure (smiles),measurement,setting,value
CC1(C)OC2C(/C=N\O)OC(n3cnc4c(N)ncnc43)C2O1 (stereo not given),T/C,"endpoint: median survival time, dose: 12.5 mg/kg/injection, schedule: Q01DX005 (ip), vehicle: distilled water + Tween-80",98 % of control
same,T/C,"endpoint: median survival time, dose: 25.0 mg/kg/injection, schedule: Q01DX005 (ip), vehicle: distilled water + Tween-80",90 % of control
same,T/C,"endpoint: median survival time, dose: 50.0 mg/kg/injection, schedule: Q01DX005 (ip), vehicle: distilled water + Tween-80",96 % of control
same,T/C,"endpoint: median survival time, dose: 100.0 mg/kg/injection, schedule: Q01DX005 (ip), vehicle: distilled water + Tween-80",101 % of control
same,T/C,"endpoint: median survival time, dose: 200.0 mg/kg/injection, schedule: Q01DX005 (ip), vehicle: distilled water + Tween-80",101 % of control
Clc1ccc2nc(C(Cl)(Cl)Cl)nc(NCCN3CCCCC3)c2c1,T/C,"endpoint: mean survival time, dose: 50.0 mg/kg/injection, schedule: Q01DX009 (ip), vehicle: saline with Tween-80",89 % of control
same,T/C,[1],113 % of control
same,T/C,[2],97 % of control
same,T/C,[3],91 % of control
NCc1cnc(N)nc1N,T/C,[4],98 % of control
same,T/C,[3],102 % of control
O=C1c2ccccc2S(=O)(=O)N1CC(O)COc1ccc(Cl)cc1 (stereo not given),T/C,[4],101 % of control
same,T/C,[3],101 % of control
same,T/C,[5],93 % of control
CCCC(=O)NNC(=O)c1ccccn1,T/C,"endpoint: mean survival time, dose: 100.0 mg/kg/injection, schedule: Q01DX009 (ip), vehicle: saline sonified",109 % of control
same,T/C,[4],101 % of control
same,T/C,[3],104 % of control
same,T/C,[5],106 % of control
O=C(CC(=O)Nc1ccc([N+](=O)[O-])cc1)Nc1ccc([N+](=O)[O-])cc1,T/C,[1],91 % of control
same,T/C,[2],86 % of control
same,T/C,[6],89 % of control
CC(=O)OC1OC(C)C(OC(C)=O)C(OC(C)=O)C1NC(=O)N(CCCl)N=O (stereo not given),T/C,"endpoint: mean survival time, dose: 17.0 mg/kg/injection, schedule: Q01DX001 (ip), vehicle: saline with Tween-80",508 % of control
same,T/C,"endpoint: mean survival time, dose: 26.0 mg/kg/injection, schedule: Q01DX001 (ip), vehicle: saline with Tween-80",535 % of control
same,T/C,"endpoint: mean survival time, dose: 40.0 mg/kg/injection, schedule: Q01DX001 (ip), vehicle: saline with Tween-80",389 % of control
Cc1cc(C)cc(C(C)C)c1,T/C,[1],98 % of control
same,T/C,[2],101 % of control
NC1=NC(=S)CS1,T/C,[7],95 % of control
same,T/C,[8],95 % of control
same,T/C,[9],87 % of control
CC(C)(C)c1ccc(C(=O)C2CC2)cc1,T/C,[4],98 % of control
same,T/C,[3],96 % of control
O=[N+]([O-])c1ccc(O)c(CCl)c1,T/C,[7],102 % of control
same,T/C,[8],93 % of control
same,T/C,[9],96 % of control
CC[N+](C)(CC)CCOC(=O)c1ccccc1Oc1ccc(C)cc1,T/C,"endpoint: mean survival time, dose: 25.0 mg/kg/injection, schedule: Q01DX009 (ip), vehicle: saline",107 % of control
same,T/C,"endpoint: mean survival time, dose: 50.0 mg/kg/injection, schedule: Q01DX009 (ip), vehicle: saline",107 % of control
CN(C)C(C)(CO)CO,T/C,"endpoint: mean survival time, dose: 100.0 mg/kg/injection, schedule: Q01DX001 (ip), vehicle: saline",98 % of control
same,T/C,"endpoint: mean survival time, dose: 200.0 mg/kg/injection, schedule: Q01DX001 (ip), vehicle: saline",98 % of control
same,T/C,"endpoint: mean survival time, dose: 400.0 mg/kg/injection, schedule: Q01DX001 (ip), vehicle: saline",113 % of control
CC1CCCC(C)N1C1=NCCO1 (stereo not given),T/C,"endpoint: mean survival time, dose: 5.0 mg/kg/injection, schedule: Q04DX003 (ip), vehicle: saline",102 % of control
same,T/C,"endpoint: mean survival time, dose: 10.0 mg/kg/injection, schedule: Q04DX003 (ip), vehicle: saline",97 % of control
same,T/C,"endpoint: mean survival time, dose: 20.0 mg/kg/injection, schedule: Q04DX003 (ip), vehicle: saline",94 % of control
O=C(Nc1cccc(I)c1)OCCCl,T/C,"endpoint: mean survival time, dose: 100.0 mg/kg/injection, schedule: Q04DX002 (ip), vehicle: saline with Tween-80",89 % of control
same,T/C,"endpoint: mean survival time, dose: 200.0 mg/kg/injection, schedule: Q04DX002 (ip), vehicle: saline with Tween-80",92 % of control
same,T/C,"endpoint: mean survival time, dose: 400.0 mg/kg/injection, schedule: Q04DX002 (ip), vehicle: saline with Tween-80",92 % of control
COc1ccc(NC(=O)Oc2cc(C)c(Cl)cc2C(C)C)c(Cl)c1,T/C,"endpoint: mean survival time, dose: 50.0 mg/kg/injection, schedule: Q01DX009 (ip), vehicle: Klucel (hydroxypropylcellulose) (HPC)",100 % of control
same,T/C,"endpoint: mean survival time, dose: 100.0 mg/kg/injection, schedule: Q01DX009 (ip), vehicle: Klucel (hydroxypropylcellulose) (HPC)",96 % of control
same,T/C,[10],98 % of control
same,T/C,"endpoint: mean survival time, dose: 200.0 mg/kg/injection, schedule: Q01DX009 (ip), vehicle: Klucel (hydroxypropylcellulose) (HPC)",96 % of control
same,T/C,[11],98 % of control
same,T/C,[12],100 % of control
CCOC(=O)Nc1cc(Cl)c2nnn(C(=O)OCC)c2n1,T/C,"endpoint: mean survival time, dose: 12.5 mg/kg/injection, schedule: Q01DX005 (ip), vehicle: water",105 % of control
same,T/C,"endpoint: mean survival time, dose: 25.0 mg/kg/injection, schedule: Q01DX005 (ip), vehicle: water",98 % of control
same,T/C,"endpoint: mean survival time, dose: 50.0 mg/kg/injection, schedule: Q01DX005 (ip), vehicle: water",96 % of control
same,T/C,"endpoint: mean survival time, dose: 100.0 mg/kg/injection, schedule: Q01DX005 (ip), vehicle: water",105 % of control
N#CN=C(N)NC(=O)c1ccccc1,T/C,[4],102 % of control
same,T/C,[3],98 % of control
Cn1cnc([N+](=O)[O-])c1Sc1ncnc2c1ncn2C1CC(O)C(CO)O1 (stereo not given),T/C,"endpoint: median survival time, dose: 3.75 mg/kg/injection, schedule: Q01DX005 (ip), vehicle: saline with Tween-80",104 % of control
same,T/C,"endpoint: median survival time, dose: 7.5 mg/kg/injection, schedule: Q01DX005 (ip), vehicle: saline with Tween-80",106 % of control
same,T/C,"endpoint: median survival time, dose: 15.0 mg/kg/injection, schedule: Q01DX005 (ip), vehicle: saline with Tween-80",103 % of control
same,T/C,"endpoint: median survival time, dose: 30.0 mg/kg/injection, schedule: Q01DX005 (ip), vehicle: saline with Tween-80",106 % of control
same,T/C,"endpoint: median survival time, dose: 60.0 mg/kg/injection, schedule: Q01DX005 (ip), vehicle: saline with Tween-80",118 % of control
Cn1ccc(=O)nc1,T/C,"endpoint: mean survival time, dose: 100.0 mg/kg/injection, schedule: Q04DX003 (ip), vehicle: saline sonified",102 % of control
same,T/C,"endpoint: mean survival time, dose: 200.0 mg/kg/injection, schedule: Q04DX003 (ip), vehicle: saline sonified",104 % of control
same,T/C,"endpoint: mean survival time, dose: 400.0 mg/kg/injection, schedule: Q04DX003 (ip), vehicle: saline sonified",104 % of control
CCOC(=O)CCN(C(=O)OCc1ccccc1)N(C)C(=O)OCc1ccccc1,T/C,"endpoint: mean survival time, dose: 25.0 mg/kg/injection, schedule: Q04DX003 (ip), vehicle: Klucel (hydroxypropylcellulose) (HPC)",91 % of control
same,T/C,"endpoint: mean survival time, dose: 50.0 mg/kg/injection, schedule: Q04DX003 (ip), vehicle: Klucel (hydroxypropylcellulose) (HPC)",94 % of control
same,T/C,[10],89 % of control
same,T/C,[11],89 % of control
same,T/C,[12],100 % of control
CCCCNC(=O)Nc1ccccc1Cl,T/C,[1],91 % of control
same,T/C,[4],101 % of control
same,T/C,[2],94 % of control
same,T/C,[3],100 % of control
same,T/C,[6],100 % of control
same,T/C,[5],92 % of control
CCCCCCCCCCCCCCCCOc1ccc(OCCCCCCCCCCCCCCC)cc1,T/C,"endpoint: mean survival time, dose: 100.0 mg/kg/injection, schedule: Q01DX001 (ip), vehicle: saline with Tween-80",88 % of control
same,T/C,"endpoint: mean survival time, dose: 200.0 mg/kg/injection, schedule: Q01DX001 (ip), vehicle: saline with Tween-80",89 % of control
same,T/C,"endpoint: mean survival time, dose: 400.0 mg/kg/injection, schedule: Q01DX001 (ip), vehicle: saline with Tween-80",88 % of control
O=c1[nH]c(=O)n2ncc(Br)c2[nH]1,T/C,"endpoint: median survival time, dose: 50.0 mg/kg/injection, schedule: Q01DX005 (ip), vehicle: saline",102 % of control
same,T/C,"endpoint: median survival time, dose: 100.0 mg/kg/injection, schedule: Q01DX005 (ip), vehicle: saline",102 % of control
COc1cccc2c1C(=O)c1c(O)c3c(c(O)c1C2=O)C[C@@](O)(C(=O)COC(=O)Cc1cccc2ccccc12)C[C@@H]3OC1CC(N)C(O)C(C)O1 (stereo not given in full),T/C,"endpoint: mean survival time, dose: 0.5 mg/kg/injection, schedule: Q01DX009 (ip), vehicle: saline with Tween-80",118 % of control
same,T/C,"endpoint: mean survival time, dose: 1.0 mg/kg/injection, schedule: Q01DX001 (ip), vehicle: other",116 % of control
same,T/C,"endpoint: mean survival time, dose: 2.5 mg/kg/injection, schedule: Q01DX001 (ip), vehicle: saline with Tween-80",117 % of control
same,T/C,"endpoint: mean survival time, dose: 5.0 mg/kg/injection, schedule: Q04DX003 (ip), vehicle: other",152 % of control
same,T/C,"endpoint: mean survival time, dose: 8.0 mg/kg/injection, schedule: Q01DX009 (ip), vehicle: saline with Tween-80",122 % of control
same,T/C,"endpoint: mean survival time, dose: 10.0 mg/kg/injection, schedule: Q04DX003 (ip), vehicle: saline with Tween-80",151 % of control
same,T/C,"endpoint: mean survival time, dose: 16.0 mg/kg/injection, schedule: Q01DX009 (ip), vehicle: saline with Tween-80",88 % of control
same,T/C,"endpoint: mean survival time, dose: 32.0 mg/kg/injection, schedule: Q01DX001 (ip), vehicle: other",90 % of control
O=C(NCCC1CC=CCC1)c1ccccc1 (stereo not given),T/C,[1],97 % of control
same,T/C,[2],95 % of control
same,T/C,[6],103 % of control
CC(C)C1(NC(=O)C2C=C3c4cccc5[nH]cc(c45)CC3N(C)C2)OC2(O)C3CCCN3C(=O)C(Cc3ccccc3)N2C1=O (stereo not given),T/C,"endpoint: mean survival time, dose: 50.0 mg/kg/injection, schedule: Q04DX003 (ip), vehicle: saline with Tween-80",96 % of control
same,T/C,[4],105 % of control
same,T/C,[3],100 % of control
